Activity calls are given as the source filed them.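 The calls were made as follows: active = compounds giving half or more protection of infected cells from virus-caused growth loss, again on retest; inactive = the rest.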 Where a SMILES comes first, the peptide text is derived from it. Bridges are numbered along the chain shown (N, C = ends). [ ]: non-standard residue; d: D form. The star is where a group is joined. ξ: configuration not given here. X17 = O=C(OCc1ccccc1)[C@@H]1CCC[C@H]1N*; Fmoc = O=C(OCC1c2ccccc2-c2ccccc21)*; ξW = NC(Cc1c[nH]c2ccccc12)C(=O)O; ξF = NC(Cc1ccccc1)C(=O)O; Orn = NCCC[CH](N)C(=O)O; Boc = CC(C)(C)OC(=O)*; ξK = NCCCCC(N)C(=O)O; ξT = CC(O)C(N)C(=O)O; tBu = CC(C)(C)*
Test system: CEM cells HIV-1 protection, formazan growth assay
Assay: NCI AIDS Antiviral Assay
Settings: for IC50: measured here: growth of uninfected CEM cells
In short: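 Five concentrations of each compound were applied to infected and uninfected human CEM cells. Protection from HIV-1 was judged from growth measured with a soluble formazan assay.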

Compound | EC50 [µM] | IC50 [µM] | outcome
CC(=O)Nc1ccc(C(=O)N2N=C(C)/C(=C/c3cccc(O)c3)C2=O)cc1 | > 138 | > 138 | 
NC(=S)N=Nc1c(O)cc(Nc2ccc(Cl)cc2Cl)c2ccccc12 | > 138 | 97.7 | 
O=[N+]([O-])c1ccc(SSc2ccc([N+](=O)[O-])cc2)cc1 | > 200 | 24 | inactive
COc1ccc(/C(=N/O)c2ccccc2C2=Nc3ccccc3C(NCc3ccccc3)O2)cc1C (stereo unspecified) | > 200 | 22.4 | 
C=C(C)CN1CCCN(S(=O)(=O)c2ccc(C)cc2)CC(=C)CN(S(=O)(=O)c2ccc(C)cc2)CCC1 | > 200 | 5.25 | 
CC(=O)O[C@]12CCCCCC1C1(O)C(O)CCCCC12 (stereo partly specified) | > 200 | > 200 | 
CC(C)=CCN1Cc2cc(Cl)cc3[nH]c(=S)n(c23)CC1C (stereo unspecified) |  | 26.9 | active
N#Cc1c(=O)n(O)c2ccccc2[n+]1[O-] | > 200 | > 200 | 
Cc1cc(C)nc(NS(=O)(=O)c2ccc(NC(=O)c3cccc4c(=O)c5ccccc5[nH]c34)cc2)n1 |  |  | inactive
Cc1cc(Cl)c(O)c(-c2cc(-c3ccc([N+](=O)[O-])cc3)c3c(N)[nH]c(=O)nc3n2)c1 | > 200 | 5.25 | 
CCCCCCCCCCC(C)CCCCCCC(=O)O (stereo unspecified) |  |  | inactive
N#Cc1cccc(/C=C/C(=O)c2ccccc2)c1 | > 22.4 | 4.07 | 
CCc1n[nH]c(=O)n1/N=C/c1ccc(C)cc1 | > 200 | 158 | 
CCN(CC)CCNc1ccc2ncn3c4c(OC)ccc(OC)c4c(=O)c1c23 | > 50.1 | 1.23 | 
C/C=C/CP(=O)(c1ccccc1)c1ccccc1 | 0.0631 | > 200 | 
O=C1CSC(=S)N1c1ccccc1 | > 240 | 178 | 
COc1ccc(C2SC(=S)N(c3ccc(Cl)cc3)N2c2ccc(Cl)cc2)cc1 (stereo unspecified) | > 200 | 24 | 
CCN(CC)CC(C)(C)C(=O)/C=C/c1ccc(Cl)cc1 | > 200 | 7.24 | 
Cc1ccc([N+](=O)[O-])cc1NC(=O)C(=O)C(C(=O)c1ccccc1F)C1OC(=O)c2ccccc21 (stereo unspecified) | > 275 | 8.32 | 
Cc1nc(-c2ccc([N+](=O)[O-])cc2)cn2c1nc1ccccc12 | 457 | 501 | 
COc1cc2c(c3oc(C)c(C)c(=O)c13)C=CC(C)(C)O2 | > 200 | 66.1 | 
O=C(Nc1ccc(Cl)cc1)C(=O)C(C(=O)c1ccccc1-c1ccccc1)C1OC(=O)c2ccccc21 (stereo unspecified) | > 70.8 | 13.2 | 

Compound | EC50 [µM] | IC50 [µM] | outcome
CCC12CC[C@H](C#N)N3CCc4c(n(c5ccccc45)C(=O)C1)C32 (stereo partly specified) |  |  | inactive
O=C(O)c1c(Br)c(Br)c(Br)c(Br)c1C1c2ccc(O)cc2Oc2cc(O)ccc21 | 2.95 | 174 | 
CC(OC(C)(C)C)C(NC(=O)C(CCCCNC(=O)OC(C)(C)C)NC(=O)C(Cc1c[nH]c2ccccc12)NC(=O)C(Cc1ccccc1)NC(=O)OCC1c2ccccc2-c2ccccc21)C(=O)NC(Cc1ccccc1)C(=O)N[C@@H]1CCC[C@H]1C(=O)OCc1ccccc1 (stereo partly specified) (Fmoc-[ξF][ξW][ξK](Boc)[ξT](tBu)[ξF]-X17) |  |  | inactive
CC(C)(C)OC(=O)NCC(CNC(=O)OC(C)(C)C)c1nc(C(N)=O)cs1 | > 200 | > 200 | 
O=c1[nH]nc(Cc2ccc([N+](=O)[O-])cc2)n1CCO | > 200 | > 200 | 
O=C(CNC(=O)Nc1ccc(NC(=O)NCC(=O)Nc2ccc(C3=NCCN3)cc2)cc1)Nc1ccc(C2=NCCN2)cc1 | 81.3 | > 200 | 
O=C(NC(=O)c1ccccc1O)c1ccccc1 | > 282 | > 282 | 
CNC(=O)C(C)NC(=O)C(Cc1ccccc1)NC(=O)OC(C)(C)C (stereo unspecified) | > 200 | > 200 | 
C=CCOc1ccc(Sc2c(O)cc(-c3ccccc3)oc2=O)c(C(C)(C)C)c1 | > 200 | 31.6 | 
CCNC(=O)Cc1nc2c(=O)[nH]cnc2n1C1OC(CO)C(O)C1O (stereo unspecified) | > 200 | > 200 | 
Cc1ccc(-c2cc(-c3ccco3)c(C#N)c(=S)[nH]2)cc1 | > 200 | 120 | 
Cn1c(-c2cccc(N)c2)[n+](C)c2ccccc21 | > 200 | 126 | 
O=[N+]([O-])c1cccc(C2=NN(c3ccccc3)C3c4ccccc4OCC23)c1 (stereo unspecified) | > 7.41 | > 7.41 | 
Nc1cc(Cl)ccc1S | > 200 | 13.8 | 
Cc1cc2c(c3ncccc13)OCN(Cc1ccc(Cl)c(Cl)c1)C2 | > 100 | 1.05 | 
COC1OC(OCCC#N)C(OCCC#N)C(OCCC#N)C1OCCC#N (stereo unspecified) | > 200 | > 200 | 
N#C/C(=C\c1ccccc1)c1cccc(I)c1 | > 200 | 55 | 
NC1=NC(=O)C(CC(=O)Nc2ccc([N+](=O)[O-])cc2[N+](=O)[O-])S1 (stereo unspecified) | > 75.9 | > 75.9 | 
CNc1ccc(N=O)cc1 | > 200 | 1.07 | 
Nc1ccc(S(=O)(=O)Nc2nccs2)cc1N=Nc1ccccc1[N+](=O)[O-] | > 200 | > 200 | 
CC(=O)ON1CCC(n2cc(C)c(=O)[nH]c2=O)C1 (stereo unspecified) | > 200 | > 200 | 
O=c1c2cccnc2ncn1CCN1CCOCC1 |  |  | inactive

Compound | EC50 [µM] | IC50 [µM] | outcome
O=C1NC(=O)/C(=C\c2ccccc2)C2=C1CCCC2 | > 74.1 | 15.5 | 
C=CCc1oc(C)nc1CCCC | > 200 | > 200 | 
Clc1nc(Cl)nc(NC23CC4CC(CC(C4)C2)C3)n1 | > 200 | 107 | 
Cc1cc(S(=O)(=O)N2CCNNC2=O)c(S)cc1Cl | 27.5 | 50.1 | 
OCC1OC(NC(=S)NCCC(F)(F)C(F)(F)C(F)(F)C(F)(F)C(F)(F)C(F)(F)F)C(O)C(O)C1O (stereo unspecified) | > 200 | 120 | 
CCN(CC)c1ccc(N=C2C=C(Cl)C(=O)c3ncccc32)c(C)c1 |  |  | inactive
CCN(CC)C(=O)C1=C(C)NC(C)=C(C(=O)N(CC)CC)C1 | > 200 | 61.7 | 
COc1ccc(OC)c2cc(C3(C)SCCCS3)ccc12 |  |  | inactive
CC(C)=NNc1snnc1C(N)=O | > 200 | > 200 | 
NS(=O)(=O)c1ccc(NC(=O)COC(=O)c2cccc3c(=O)c4ccccc4[nH]c23)cc1 |  |  | inactive
CCOC(=O)c1c(C)c2c(n1C)CCc1cn[nH]c1-2 | > 191 | 126 | 
CC(C)(C)OC(=O)CC(NC(=O)OCc1ccccc1)NC(=O)OC(C)(C)C (stereo unspecified) | > 200 | > 200 | 
C=CCNC(=O)NNC(O)(C(=O)OCC)C(F)(F)F (stereo unspecified) | > 200 | 174 | 
C=CCCC(CCC=C)(C(=O)O)C(=O)O | > 1170 | > 1170 | 
CC1=C(C(=O)Nc2ccccc2C)C(c2ccccc2)C(C(=O)Nc2ccccc2C)=C(C)N1 | > 11.5 | > 11.5 | 
CC(C)(C)OC(=O)CN1CCNCCN(CC(=O)OC(C)(C)C)CC1 | > 200 | 38 | 
COc1ccc(C2c3cc4c(cc3OC(NCCO)C2C)OCO4)cc1 (stereo unspecified) | > 200 | 21.9 | 
O=c1c(NO)c([N+](=O)[O-])cnn1-c1ccccc1 | > 89.1 | 0.316 | 
Cc1ccc(S(=O)(=O)NC(=O)OC23COCN2COC3)cc1 | > 759 | 132 | 
COC(=O)c1ccccc1CC1Cc2cc3c(cc2C1=O)CCC3 (stereo unspecified) | > 200 | 7.59 | 
Fc1cccc(F)c1C1SCc2nc3ccc(Cl)cc3n21 (stereo unspecified) | 4.07 | > 200 | 
C(=C\N1CCCCC1)/c1nnnn1-c1ccccc1 | > 200 | 24 | 

Compound | EC50 [µM] | IC50 [µM] | outcome
O=[N+]([O-])c1nccn1CCC[n+]1ccccc1 | > 200 | > 200 | 
CC(C)(CN1CCCCC1)C(=O)CC(SCCS(=O)(=O)O)c1ccc(Br)cc1 (stereo unspecified) | > 427 | 1.74 | 
CCC(C)N1CN(c2ccccc2)C2(CCN(CCCC(=O)c3ccc(F)cc3)CC2)C1=O (stereo unspecified) | > 200 | 3.55 | 
CCOc1ccc(N=Cc2cccc3cccnc23)cc1 |  |  | inactive
COc1cccc(N=N/C(=N/NC(=O)c2cc(Cl)ccc2O)c2ccc(N(CCC#N)CCC#N)cc2C)c1 | > 200 | 29.5 | 
CCSC1(SCC)CCN(C=NC(C)(C)C)C1 | > 912 | > 912 | 
Nc1ncnc2c1ncn2C1OC(CCP(=O)(O)O)C(O)C1O (stereo unspecified) | > 100 | > 100 | 
CC(=O)Nc1ccc(/C=C/C(=O)c2ccccc2)cc1 | > 38 | > 38 | 
CC(C)(C)OC(=O)NC(Cc1ccc(OC(C)(C)C)cc1)C(=O)N[C@H]1CC[C@H](C(=O)O)C1 (stereo partly specified) |  |  | inactive
c1ccc(N2N=NC3C4CCC(C4)C32)cc1 (stereo unspecified) | > 200 | > 200 | 
NC(=O)C1CCCNC(=O)CC(NC(=O)C(N)Cc2ccc(O)cc2)C(=O)NC(Cc2ccccc2)C(=O)N1 (stereo unspecified) (H-YDF[Orn]-NH2; lactam 2-4; configuration not given here) | > 100 | > 100 | 
Nc1ncnc2c1ncn2C1OC(CO)C2NP(=O)(N(CCCl)CCCl)OC21 (stereo unspecified) | > 200 | > 200 | inactive
N#Cc1c(=O)c2ccccc2n2c1[nH]c1ccccc12 | > 200 | 77.6 | 
COC1C(=[N+]=[N-])C(=O)NC(=O)N1C1OC(COC(c2ccccc2)(c2ccccc2)c2ccccc2)C(O)C1O (stereo unspecified) | > 18.2 | > 18.2 | 
CC(=O)N1CC[N+](C)(CCCCN2c3ccccc3Sc3cc(N=[N+]=[N-])ccc32)CC1 | > 200 | 81.3 | 
CCCCP(CCCC)(CCCC)=C(C(=O)OC)C(C(=O)OC)=C1SC(C(=O)OC)=C(C(=O)OC)S1 | > 200 | 33.1 | 
Cc1cccc(-c2cccc(COCc3cccc(-c4cccc(CO)n4)n3)n2)n1 | > 100 | 43.7 | 
CC(CCC(C)C(=O)O)C(=O)O (stereo unspecified) | > 1450 | > 1450 | 
COC(=O)C[CH](C(=O)OC)[Ge]([CH3])([CH3])[S]c1ccccc1 (stereo unspecified) | > 100 | 18.2 | 
CCOC(=O)C(=O)C(=O)NN(C)C1=NCCN1 | > 200 | > 200 | 
C/C(O)=C(/C=NC(=S)C(N)=S)C(=O)Nc1ccccc1 | > 200 | 102 | 

From PubChem BioAssay AID179 (DTP/NCI, 2004)
